Data from ChEMBL document CHEMBL1146649, “New highly active taxoids from 9 beta-dihydrobaccatin-9,10-acetals. Part 5” (2004).
≈ marks a conversion by molar mass, not a printed value.

Tests used:
[1] = test system: Mus musculus; test: Effective dose of intravenously administered compound against B16 melanoma BL6 cells implanted into mice; range is 7.8-17.8; format: functional; details: B16, iv
[2] = test system: B16; test: Effective dose of perorally administered compound against B16 melanoma BL6 cells implanted into mice; format: functional; details: Mus musculus, B16, po
[3] = test system: P388; test: Concentration required to inhibit mouse P388 cell line growth by 50% at 72 hr continuous exposure; format: functional; details: P388, 72 h
[4] = test system: PC-6; test: Concentration required to inhibit human PC-6 cell line growth by 50% at 72 hr continuous exposure; format: functional; details: PC-6, 72 h
[5] = test system: PC-6; test: Concentration required to inhibit human PC-6/VP1-1 cell line growth by 50% at 72 hr exposure; format: functional; details: PC-6, 72 h
[6] = test system: PC-12; test: Concentration required to inhibit human PC-12 cell line growth by 50% at 72 hr continuous exposure; format: functional; details: PC-12, 72 h
[7] = test system: PC-6; test: Concentration required to inhibit human PC-6/VCR29-9 cell line growth by 50% at 72 hr exposure; format: functional; details: PC-6, 72 h
[8] = test system: Mus musculus; test: Maximum rate of body weight loss after intravenous administration of 11.9 mg/kg of compound in mice; format: functional
[9] = test system: Mus musculus; test: Maximum rate of body weight loss after peroral administration of 17.8 mg/kg of compound in mice; format: functional; details: route oral
[10] = test system: Mus musculus; test: Maximum rate of body weight loss after peroral administration of 7.9 mg/kg of compound in mice; <0 indicates no weight loss; format: functional; details: route oral
[11] = test system: B16; test: Antitumor activity of 11.9 mg/kg of intravenously administered compound against B16 melanoma BL6 cells implanted into mice, value reported is percent compared to control; format: functional, Mus musculus; details: route intravenous
[12] = test system: B16; test: Antitumor activity of 11.9 mg/kg of perorally administered compound against B16 melanoma BL6 cells implanted into mice, value reported is percent compared to control; format: functional, Mus musculus; details: route oral
[13] = test system: B16; test: Antitumor activity of 17.8 mg/kg of perorally administered compound against B16 melanoma BL6 cells implanted into mice, value reported is percent compared to control; format: functional, Mus musculus; details: route oral
[14] = test system: Mus musculus; test: Antitumor activity of 5.3 mg/kg of intravenously administered compound against B16 melanoma BL6 cells implanted into mice, value reported is percent compared to control; format: functional; details: route intravenous
[15] = test system: Mus musculus; test: Antitumor activity of 7.8 mg/kg of intravenously administered compound against B16 melanoma BL6 cells implanted into mice, value reported is percent compared to control; format: functional; details: route intravenous
[16] = test system: Mus musculus; test: Antitumor activity of 7.9 mg/kg of perorally administered compound against B16 melanoma BL6 cells implanted into mice, value reported is percent compared to control; format: functional; details: route oral
[17] = test system: Mus musculus; test: Maximum rate of body weight loss after intravenous administration of 5.3 mg/kg of compound in mice; <0 indicates no weight loss; format: functional
[18] = test system: Mus musculus; test: Maximum rate of body weight loss after intravenous administration of 7.8 mg/kg of compound in mice; format: functional
[19] = test system: Mus musculus; test: Maximum rate of body weight loss after peroral administration of 11.9 mg/kg of compound in mice; format: functional; details: route oral
[20] = test system: Mus musculus; test: Effective dose of intravenously administered compound against B16 melanoma BL6 cells implanted into mice; range is 7.8-11.9; format: functional; details: B16, iv
[21] = test system: Mus musculus; test: Effective dose of perorally administered compound against B16 melanoma BL6 cells implanted into mice; range is 11.9-17.8; format: functional; details: B16, po
[22] = test system: Mus musculus; test: Number of mice died at 11.9 mg/kg of intravenous dose, among the total 6 mice tested; format: functional
[23] = test system: Mus musculus; test: Number of mice died at 11.9 mg/kg of peroral dose, among the total 6 mice tested; format: functional; details: route oral
[24] = test system: Mus musculus; test: Number of mice died at 17.8 mg/kg of intravenous dose among the total 6 mice tested; format: functional
[25] = test system: Mus musculus; test: Number of mice died at 17.8 mg/kg of peroral dose among the total 6 mice tested; format: functional; details: route oral
[26] = test system: Mus musculus; test: Number of mice died at 26.7 mg/kg of peroral dose of compound among the total 6 mice tested; format: functional; details: route oral
[27] = test system: Mus musculus; test: Number of mice died at 5.3 mg/kg of intravenous dose of compound among the total 6 mice tested; format: functional
[28] = test system: Mus musculus; test: Number of mice died at 7.8 mg/kg of intravenous dose of compound among the total 6 mice tested; format: functional
[29] = test system: Mus musculus; test: Number of mice died at 7.9 mg/kg of peroral dose of compound among the total 6 mice tested; format: functional; details: route oral
[30] = test system: Mus musculus; test: Effective dose of intravenously administered compound against B16 melanoma BL6 cells implanted into mice; range is 5.3-11.9; format: functional; details: B16, iv
[31] = test system: Mus musculus; test: Maximum rate of body weight loss after peroral administration of 5.3 mg/kg of compound in mice; format: functional; details: route oral
[32] = test system: Mus musculus; test: Maximum rate of body weight loss after peroral administration of 7.9 mg/kg of compound in mice; format: functional; details: route oral
[33] = test system: Mus musculus; test: Antitumor activity of 5.3 mg/kg of perorally administered compound against B16 melanoma BL6 cells implanted into mice, value reported is percent compared to control; format: functional; details: route oral
[34] = test system: Mus musculus; test: Antitumor activity of 7.9 mg/kg of intravenously administered compound against B16 melanoma BL6 cells implanted into mice, value reported is percent compared to control; format: functional; details: route intravenous
[35] = test system: Mus musculus; test: Maximum rate of body weight loss after intravenous administration of 5.3 mg/kg of compound in mice; format: functional
[36] = test system: Mus musculus; test: Maximum rate of body weight loss after intravenous administration of 7.9 mg/kg of compound in mice; format: functional
[37] = test system: Mus musculus; test: Effective dose of perorally administered compound against B16 melanoma BL6 cells implanted into mice; range is 7.9-11.0; format: functional; details: B16, po
[38] = test system: Mus musculus; test: Number of mice died at 5.3 mg/kg of peroral dose of compound among the total 6 mice tested; format: functional; details: route oral
[39] = test system: Mus musculus; test: Number of mice died at 7.9 mg/kg of intravenous dose of compound among the total 6 mice tested; format: functional

Compound: CC(=O)O[C@@]12CO[C@@H]1CC[C@@]1(C)[C@@H]3O[C@H](CN(C)C)O[C@@H]3C3=C(C)[C@@H](OC(=O)[C@H](O)[C@@H](NC(=O)OC(C)(C)C)c4nccs4)C[C@@](O)([C@@H](OCc4ccccc4)[C@@H]12)C3(C)C
- ED50 [1]: 17.8 mg/kg
- ED50 [2]: 11.9 mg/kg
- GI50 [3]: 0.25 ng/mL (≈ 0.292 nM)
- GI50 [4]: 0.27 ng/mL (≈ 0.315 nM)
- GI50 [5]: 39.1 ng/mL (≈ 45.7 nM)
- GI50 [6]: 0.35 ng/mL (≈ 0.409 nM)
- GI50 [7]: 2.81 ng/mL (≈ 3.28 nM)

Compound: CC(=O)O[C@@]12CO[C@@H]1CC[C@@]1(C)[C@@H]3O[C@H](CN4CCOCC4)O[C@@H]3C3=C(C)[C@@H](OC(=O)[C@H](O)[C@@H](NC(=O)OC(C)(C)C)C(C)(C)C)C[C@@](O)([C@@H](OCc4ccccc4)[C@@H]12)C3(C)C
- BWLmax [8]: 10.5%
- BWLmax [9]: 11.7%
- BWLmax [10]: <0%
- IR [11]: 93.8%
- IR [12]: 63.4%
- IR [13]: 90.3%
- IR [14]: 28.6%
- IR [15]: 71.9%
- IR [16]: 25.5%
- BWLmax [17]: <0%
- BWLmax [18]: <1.2%
- BWLmax [19]: 0.4%
- ED50 [20]: 11.9 mg/kg
- ED50 [21]: 17.8 mg/kg
- Mortality [22]: 0
- Mortality [23]: 0
- Mortality [24]: 6
- Mortality [25]: 0
- Mortality [26]: 6
- Mortality [27]: 0
- Mortality [28]: 0
- Mortality [29]: 0
- GI50 [3]: 0.34 ng/mL (≈ 0.39 nM)
- GI50 [4]: 0.7 ng/mL (≈ 0.804 nM)
- GI50 [5]: 5.56 ng/mL (≈ 6.38 nM)
- GI50 [6]: 0.13 ng/mL (≈ 0.149 nM)
- GI50 [7]: 0.85 ng/mL (≈ 0.976 nM)

Compound: CC(=O)O[C@@]12CO[C@@H]1CC[C@@]1(C)[C@@H]3O[C@H](CN(C)C)O[C@@H]3C3=C(C)[C@@H](OC(=O)[C@H](O)[C@@H](NC(=O)OC(C)(C)C)c4cccc(F)n4)C[C@@](O)([C@@H](OCc4ccccc4)[C@@H]12)C3(C)C
- BWLmax [8]: 12%
- BWLmax [9]: 13.9%
- ED50 [30]: 11.9 mg/kg
- BWLmax [31]: <0%
- BWLmax [32]: 3.8%
- IR [11]: 95.6%
- IR [12]: 97.4%
- IR [13]: 94.8%
- IR [14]: 67.6%
- IR [33]: 42.4%
- IR [34]: 91.5%
- IR [16]: 91.5%
- BWLmax [35]: 2%
- BWLmax [36]: 2.9%
- BWLmax [19]: 12.9%
- ED50 [37]: 11 mg/kg
- Mortality [22]: 0
- Mortality [23]: 0
- Mortality [24]: 6
- Mortality [25]: 5
- Mortality [27]: 0
- Mortality [38]: 0
- Mortality [39]: 0
- Mortality [29]: 0
- GI50 [3]: 0.67 ng/mL (≈ 0.772 nM)
- GI50 [4]: 0.38 ng/mL (≈ 0.438 nM)
- GI50 [5]: 21.3 ng/mL (≈ 24.5 nM)
- GI50 [6]: 0.62 ng/mL (≈ 0.714 nM)
- GI50 [7]: 2.58 ng/mL (≈ 2.97 nM)
